We go through 13 molecules from patent US20260125360A1, “HERBICIDAL IMIDAZOLE COMPOUNDS” (SYNGENTA CROP PROTECTION AG, priority 2022, published 2026).

Common to all, as to type: in vivo
Settings in all cases: 250 g/ha, evaluated after 13 days

Experiment [1] has as its system Amaranthus palmeri (AMAPA). Description: Post-emergence herbicide glasshouse test. The protocol:
(§1) Seeds of a variety of test species are sown in standard soil in pots Amaranthus palmeri (AMAPA), Amaranthus retoflexus (AMARE), Echinochloa crus-galli (ECHCG), Ipomoea hederacea (IPOHE)). After cultivation for one day (pre-emergence) or after 8 days cultivation (post-emergence) under controlled conditions in a glasshouse (at 24/16° C., day/night; 14 hours light; 65% humidity), the plants are sprayed with an aqueous spray solution derived from the formulation of the technical active ingredient in acetone/water (50:50) solution containing 0.5% Tween 20 (polyoxyethelyene sorbitan monolaurate, CAS RN 9005-64-5). Compounds are applied at 250 g/ha unless otherwise stated. The test plants are then grown in a glasshouse under controlled conditions in a glasshouse (at 24/16° C., day/night; 14 hours light; 65% humidity) and watered twice daily. After 13 days for pre and post-emergence, the test is evaluated for the percentage damage caused to the plant. The biological activities are shown in the following table on a five-point scale (5=81-100%; 4=61-80%; 3=41-60%; 2=21-40%; 1=0-20%).

In experiment [2] the test system is Amaranthus retoflexus (AMARE). Put plainly: Post-emergence herbicide glasshouse test. The protocol: as §1
In experiment [3] the test system is Echinochloa crus-galli (ECHCG). Description: Post-emergence herbicide glasshouse test. How it is done: as §1
Experiment [4] concerns Ipomoea hederacea (IPOHE). Description: Post-emergence herbicide glasshouse test. How it is done:
as §1

Experiment [5] deals with Amaranthus palmeri (AMAPA). Description: Pre-emergence herbicide glasshouse test. How it is done:
as §1

Experiment [6] deals with Amaranthus retoflexus (AMARE). Put plainly: Pre-emergence herbicide glasshouse test. How it is done: as §1
The test system of experiment [7] is Echinochloa crus-galli (ECHCG). Put plainly: Pre-emergence herbicide glasshouse test. How it is done: as §1
Experiment [8] has as its system Ipomoea hederacea (IPOHE). Description: Pre-emergence herbicide glasshouse test. The protocol:
as §1

In the case of `FC(F)(F)c1cn(Cc2cnc(Cl)s2)c(-c2ccc(Cl)nc2)n1` [Compound 1.150], the “percentage damage caused to the plant, AMAPA (five-point scale)” value in experiment [1] is given as 1 (1=0-20%); in experiment [5], 2 (2=21-40%). Also, the “percentage damage caused to the plant, AMARE (five-point scale)” value in experiment [2] is given as 1 (1=0-20%); in experiment [6], 2 (2=21-40%). Besides, the “percentage damage caused to the plant, ECHCG (five-point scale)” value in experiment [3] and in experiment [7] was 1 (1=0-20%) in each case. Moreover, the “percentage damage caused to the plant, IPOHE (five-point scale)” value in experiment [4] and in experiment [8] was 1 (1=0-20%) in each case.
Regarding `Cc1nonc1Cn1cc(C(F)(F)F)nc1-c1ccc(C(F)(F)F)cc1` [Compound 1.006], the “percentage damage caused to the plant, AMAPA (five-point scale)” value in experiment [1] and in experiment [5] was 1 (1=0-20%) in each case. Besides, the “percentage damage caused to the plant, AMARE (five-point scale)” value in experiment [2] and in experiment [6] was 1 (1=0-20%) throughout. Besides, the “percentage damage caused to the plant, ECHCG (five-point scale)” value in experiment [3] and in experiment [7] was 1 (1=0-20%) throughout. The “percentage damage caused to the plant, IPOHE (five-point scale)” value in experiment [4] and in experiment [8] was 1 (1=0-20%) in each case.
`Cn1ccc(Cn2cc(C(F)(F)F)nc2-c2cnc(F)c(Cl)c2)n1` [Compound 1.153]: the “percentage damage caused to the plant, AMAPA (five-point scale)” value in experiment [1] and in experiment [5] was 5 (5=81-100%) each time. Further, the “percentage damage caused to the plant, AMARE (five-point scale)” value in experiment [2] and in experiment [6] was 5 (5=81-100%) in each case. Besides, the “percentage damage caused to the plant, ECHCG (five-point scale)” value in experiment [3] and in experiment [7] was 5 (5=81-100%) throughout. For the same molecule, the “percentage damage caused to the plant, IPOHE (five-point scale)” value in experiment [4] is on record as 4 (4=61-80%); in experiment [8], 5 (5=81-100%).
On to `Cc1cc(Cn2cc(C(F)(F)F)nc2-c2ccc(S(C)(=O)=O)cc2)no1` [Compound 1.177], for which the “percentage damage caused to the plant, AMAPA (five-point scale)” value in experiment [1] and in experiment [5] was 5 (5=81-100%) each time. Further, the “percentage damage caused to the plant, AMARE (five-point scale)” value in experiment [2] and in experiment [6] was 5 (5=81-100%) in each case. Besides, the “percentage damage caused to the plant, ECHCG (five-point scale)” value in experiment [3] is listed as 3 (3=41-60%); in experiment [7] it was 5 (5=81-100%). In addition, the “percentage damage caused to the plant, IPOHE (five-point scale)” value in experiment [4] and in experiment [8] was 5 (5=81-100%) in each case.
Regarding `Cc1nnc(Cn2cc(C(F)(F)F)nc2-c2ccc(Cl)nc2)s1` [Compound 1.065], the “percentage damage caused to the plant, AMAPA (five-point scale)” value in experiment [1] and in experiment [5] was 5 (5=81-100%) each time. Also, the “percentage damage caused to the plant, AMARE (five-point scale)” value in experiment [2] and in experiment [6] was 5 (5=81-100%) in each case. Moreover, the “percentage damage caused to the plant, ECHCG (five-point scale)” value in experiment [3] and in experiment [7] was 1 (1=0-20%) throughout. The “percentage damage caused to the plant, IPOHE (five-point scale)” value is 1 (1=0-20%) in experiment [4] and 5 (5=81-100%) in experiment [8].
With `Cn1ccc(Cn2cc(C(F)(F)F)nc2-c2ccc(S(C)(=O)=O)cc2)n1` [Compound 1.171], the entries for the “percentage damage caused to the plant, AMAPA (five-point scale)” value in experiment [1] and in experiment [5] were 1 (1=0-20%) and 4 (4=61-80%), respectively. In addition, the “percentage damage caused to the plant, AMARE (five-point scale)” value was 1 (1=0-20%) in experiment [2] and 4 (4=61-80%) in experiment [6]. The “percentage damage caused to the plant, ECHCG (five-point scale)” value in experiment [3] and in experiment [7] was 1 (1=0-20%) each time. The “percentage damage caused to the plant, IPOHE (five-point scale)” value is given as 2 (2=21-40%) in experiment [4] and 3 (3=41-60%) in experiment [8].
For `Cc1noc(Cn2cc(C(F)(F)F)nc2-c2ccc(S(C)(=O)=O)cc2)n1` [Compound 1.176], the “percentage damage caused to the plant, AMAPA (five-point scale)” value in experiment [1] and in experiment [5] was 1 (1=0-20%) each time. The “percentage damage caused to the plant, AMARE (five-point scale)” value in experiment [2] and in experiment [6] was 1 (1=0-20%) each time. In addition, the “percentage damage caused to the plant, ECHCG (five-point scale)” value in experiment [3] and in experiment [7] was 1 (1=0-20%) throughout. The “percentage damage caused to the plant, IPOHE (five-point scale)” value in experiment [4] and in experiment [8] was 1 (1=0-20%) each time.
Turning to `CC(C)(C)c1nc(Cn2cc(C(F)(F)F)nc2-c2ccc(C(F)(F)F)cc2)no1` [Compound 1.004], the “percentage damage caused to the plant, AMAPA (five-point scale)” value in experiment [1] and in experiment [5] was 1 (1=0-20%) in each case. In addition, the “percentage damage caused to the plant, AMARE (five-point scale)” value in experiment [2] and in experiment [6] was 1 (1=0-20%) throughout. Besides, the “percentage damage caused to the plant, ECHCG (five-point scale)” value in experiment [3] and in experiment [7] was 1 (1=0-20%) in each case. Also, the results for the “percentage damage caused to the plant, IPOHE (five-point scale)” value in experiment [4] and in experiment [8] were 2 (2=21-40%) and 1 (1=0-20%), respectively.
For `Cc1nc(Cn2cc(C(F)(F)F)nc2-c2cnc(F)c(Cl)c2)no1` [Compound 1.160], the “percentage damage caused to the plant, AMAPA (five-point scale)” value in experiment [1] and in experiment [5] was 5 (5=81-100%) throughout. In addition, the “percentage damage caused to the plant, AMARE (five-point scale)” value in experiment [2] and in experiment [6] was 5 (5=81-100%) in each case. The “percentage damage caused to the plant, ECHCG (five-point scale)” value in experiment [3] and in experiment [7] was 5 (5=81-100%) each time. For the same molecule, the “percentage damage caused to the plant, IPOHE (five-point scale)” value is on record as 4 (4=61-80%) in experiment [4] and 5 (5=81-100%) in experiment [8].
With `FC(F)(F)c1cn(Cc2noc(C3CC3)n2)c(-c2ccc(Cl)nc2)n1` [Compound 1.125], the “percentage damage caused to the plant, AMAPA (five-point scale)” value in experiment [1] is listed as 4 (4=61-80%); in experiment [5] it was 5 (5=81-100%). The “percentage damage caused to the plant, AMARE (five-point scale)” value in experiment [2] and in experiment [6] was 5 (5=81-100%) throughout. In addition, the “percentage damage caused to the plant, ECHCG (five-point scale)” value in experiment [3] is 4 (4=61-80%); in experiment [7], 5 (5=81-100%). Further, the “percentage damage caused to the plant, IPOHE (five-point scale)” value in experiment [4] and in experiment [8] was 5 (5=81-100%) in each case.
As for `Cc1nnc(Cn2cc(C(F)(F)F)nc2-c2cnc(Cl)c(F)c2)o1` [Compound 1.181], the “percentage damage caused to the plant, AMAPA (five-point scale)” value is on record as 4 (4=61-80%) in experiment [1] and 5 (5=81-100%) in experiment [5]. Further, the “percentage damage caused to the plant, AMARE (five-point scale)” value in experiment [2] was 4 (4=61-80%); in experiment [6], 5 (5=81-100%). The “percentage damage caused to the plant, ECHCG (five-point scale)” value in experiment [3] is given as 1 (1=0-20%); in experiment [7], 3 (3=41-60%). In addition, the “percentage damage caused to the plant, IPOHE (five-point scale)” value is listed as 1 (1=0-20%) in experiment [4] and 4 (4=61-80%) in experiment [8].
Take `Cc1nc(Cn2cc(C(F)(F)F)nc2-c2ccc(F)c(F)c2)no1` [Compound 1.168]: the “percentage damage caused to the plant, AMAPA (five-point scale)” value in experiment [1] and in experiment [5] was 5 (5=81-100%) in each case. In addition, the “percentage damage caused to the plant, AMARE (five-point scale)” value in experiment [2] and in experiment [6] was 5 (5=81-100%) throughout. Moreover, the “percentage damage caused to the plant, ECHCG (five-point scale)” value in experiment [3] and in experiment [7] was 5 (5=81-100%) each time. Also, the “percentage damage caused to the plant, IPOHE (five-point scale)” value in experiment [4] and in experiment [8] was 5 (5=81-100%) each time.
Turning to `Cc1cc(Cn2cc(C(F)(F)F)nc2-c2ccc(Cl)nc2)n(C)n1` [Compound 1.147], the “percentage damage caused to the plant, AMAPA (five-point scale)” value in experiment [1] and in experiment [5] was 2 (2=21-40%) each time. For the same molecule, the results for the “percentage damage caused to the plant, AMARE (five-point scale)” value in experiment [2] and in experiment [6] were 3 (3=41-60%) and 2 (2=21-40%), respectively. Besides, the “percentage damage caused to the plant, ECHCG (five-point scale)” value in experiment [3] and in experiment [7] was 1 (1=0-20%) in each case. In addition, the “percentage damage caused to the plant, IPOHE (five-point scale)” value in experiment [4] is 3 (3=41-60%); in experiment [8], 4 (4=61-80%).
